According to the CheMixHub viscosity set:
Several values for one entry are separate records, joined by “and”; a condition that tells them apart may be missing. Equal values may be shown once.

Experiment: xn = mol fraction of the nth substance listed

COCCO + CCCCCO
viscosity [mPa·s]
Details | 298.15 K | 308.15 K | 318.15 K
101 kPa, x1 = 0.114 | 2.939 | 2.12 | 1.659
101 kPa, x1 = 0.2246 | 2.569 | 1.894 | 1.525
101 kPa, x1 = 0.3317 | 2.346 | 1.724 | 1.427
101 kPa, x1 = 0.4357 | 2.155 | 1.543 | 1.279
101 kPa, x1 = 0.5367 | 2.007 | 1.442 | 1.234
101 kPa, x1 = 0.6347 | 1.894 | 1.413 | 1.222
101 kPa, x1 = 0.7299 | 1.8 | 1.306 | 1.208
101 kPa, x1 = 0.8225 | 1.72 | 1.254 | 1.035
101 kPa, x1 = 0.9125 | 1.686 | 1.249 | 1.036
101.33 kPa, x1 = 0.1741 | – | 1.966 | –
101.33 kPa, x1 = 0.2604 | – | 1.804 | –
101.33 kPa, x1 = 0.3455 | – | 1.665 | –
101.33 kPa, x1 = 0.4796 | – | 1.511 | –
101.33 kPa, x1 = 0.6102 | – | 1.385 | –
101.33 kPa, x1 = 0.7245 | – | 1.309 | –
101.33 kPa, x1 = 0.78 | – | 1.284 | –
101.33 kPa, x1 = 0.9014 | – | 1.23 | –

C1CNCCN1 + O
Details | viscosity
293.15 K, 100 kPa, x1 = 0.02273 | 1.608 mPa·s
298.15 K, 101 kPa, x1 = 0.0292 | 1.877 mPa·s
303.15 K, 101 kPa, x1 = 0.00369 | 0.86 mPa·s
303.15 K, 101 kPa, x1 = 0.005 | 0.84 mPa·s
303.15 K, 101 kPa, x1 = 0.01 | 0.93 mPa·s
303.15 K, 101 kPa, x1 = 0.0113 | 0.97 mPa·s
303.15 K, 101 kPa, x1 = 0.02 | 1.13 mPa·s
303.15 K, 101 kPa, x1 = 0.02358 | 1.28 mPa·s
303.15 K, 101 kPa, x1 = 0.025 | 1.28 mPa·s
303.15 K, 101 kPa, x1 = 0.03 | 1.41 mPa·s
303.15 K, 101 kPa, x1 = 0.035 | 1.57 mPa·s
303.15 K, 101 kPa, x1 = 0.04 | 1.76 mPa·s
303.15 K, 101 kPa, x1 = 0.045 | 1.91 mPa·s
313.15 K, 100 kPa, x1 = 0.02273 | 0.9677 mPa·s and 0.988 mPa·s
313.15 K, 101 kPa, x1 = 0.005 | 0.67 mPa·s
313.15 K, 101 kPa, x1 = 0.01 | 0.74 mPa·s
313.15 K, 101 kPa, x1 = 0.0113 | 0.76 mPa·s
313.15 K, 101 kPa, x1 = 0.015 | 0.81 mPa·s
313.15 K, 101 kPa, x1 = 0.02 | 0.89 mPa·s
313.15 K, 101 kPa, x1 = 0.02358 | 1.02 mPa·s
313.15 K, 101 kPa, x1 = 0.025 | 0.99 mPa·s
313.15 K, 101 kPa, x1 = 0.0292 | 1.307 mPa·s
313.15 K, 101 kPa, x1 = 0.03 | 1.08 mPa·s
313.15 K, 101 kPa, x1 = 0.04 | 1.33 mPa·s
313.15 K, 101 kPa, x1 = 0.045 | 1.43 mPa·s
318.15 K, 101 kPa, x1 = 0.00369 | 0.61 mPa·s
318.15 K, 101 kPa, x1 = 0.0113 | 0.69 mPa·s
318.15 K, 101 kPa, x1 = 0.02358 | 0.92 mPa·s
323.15 K, 101 kPa, x1 = 0.005 | 0.51 mPa·s
323.15 K, 101 kPa, x1 = 0.01 | 0.59 mPa·s
323.15 K, 101 kPa, x1 = 0.0113 | 0.62 mPa·s
323.15 K, 101 kPa, x1 = 0.02 | 0.71 mPa·s
323.15 K, 101 kPa, x1 = 0.02358 | 0.81 mPa·s
323.15 K, 101 kPa, x1 = 0.025 | 0.8 mPa·s
323.15 K, 101 kPa, x1 = 0.03 | 0.86 mPa·s
323.15 K, 101 kPa, x1 = 0.035 | 0.95 mPa·s
323.15 K, 101 kPa, x1 = 0.04 | 1.04 mPa·s
323.15 K, 101 kPa, x1 = 0.045 | 1.11 mPa·s

CCCC(C)O (stereo not drawn) + COc1ccccc1
viscosity [mPa·s], 101.33 kPa
Details | x2 = 0.1007 | x2 = 0.2007 | x2 = 0.3001 | x2 = 0.4004 | x2 = 0.5005 | x2 = 0.5991 | x2 = 0.6973 | x2 = 0.798 | x2 = 0.897
303.15 K | 2.097 | 1.59 | 1.279 | 1.095 | 0.998 | 0.951 | 0.931 | 0.924 | 0.919
313.15 K | 1.557 | 1.234 | 1.025 | 0.903 | 0.845 | 0.823 | 0.816 | 0.811 | 0.801
323.15 K | 1.202 | 1.014 | 0.887 | 0.803 | 0.753 | 0.725 | 0.711 | 0.704 | 0.697

CC(CC(C)(C)C)CC(C)(C)CC(C)(C)C (stereo not drawn) + CC1CCCCC1
viscosity [mPa·s], 100 kPa
Details | x2 = 0.125 | x2 = 0.25 | x2 = 0.375 | x2 = 0.5 | x2 = 0.625 | x2 = 0.75 | x2 = 0.875
293.15 K | 3.188 | 2.761 | 2.275 | 1.89 | 1.52 | 1.244 | 0.967
303.15 K | 2.553 | 2.272 | 1.864 | 1.556 | 1.283 | 1.047 | 0.834
313.15 K | 2.1 | 1.886 | 1.574 | 1.32 | 1.096 | 0.908 | 0.725
323.15 K | 1.766 | 1.538 | 1.329 | 1.136 | 0.953 | 0.802 | 0.641

CCCC(C)O (stereo not drawn) + CN(C)C=O
viscosity [mPa·s], 101 kPa
Details | x2 = 0.109 | x2 = 0.1534 | x2 = 0.2404 | x2 = 0.345 | x2 = 0.4412 | x2 = 0.5603 | x2 = 0.6548 | x2 = 0.7436 | x2 = 0.8432 | x2 = 0.9376
298.15 K | 2.69 | 2.51 | 2.26 | 2.01 | 1.82 | 1.59 | 1.41 | 1.25 | 1.07 | 0.91
303.15 K | 2.23 | 2.05 | 1.84 | 1.65 | 1.51 | 1.33 | 1.21 | 1.08 | 0.96 | 0.84
308.15 K | 1.83 | 1.68 | 1.49 | 1.35 | 1.24 | 1.13 | 1.04 | 0.95 | 0.86 | 0.78
313.15 K | 1.54 | 1.4 | 1.24 | 1.13 | 1.05 | 0.97 | 0.91 | 0.86 | 0.79 | 0.72
